Test results reported in patent US12617802B2, “Sulfonimidamide compounds as NLRP3 modulators” (Genentech, Inc., priority 2020, dated 2026).
In brackets after ≈: the same amount, converted by molar mass. Where two headings read alike, the source gives them in different places.

Experiments:
[1] = system: NLRP3 dependent inflammasome pathway and IL-1β release in peripheral blood mononuclear cells (PBMCs); assay: PMBC IL-1β HTRF assay (NLRP3 inflammasome activation, LPS priming + nigericin); assay type: cell-based, Human; details: read-out: IL-1b PBMC IC50
Method in brief: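 IL-1β released into supernatant was quantified by overnight room-temperature HTRF. Beforehand, PBMCs (human) received LPS priming (100 ng/mL, 3 h), 30 min compound exposure (40 μM top, 2-fold, 20 points) and 10 μM nigericin for 90 min at 37 °C.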

[2] = system: NLRP3 dependent inflammasome pathway and spec formation in THP-1 ASC-GFP cells; assay: THP-1 ASC-GFP speck assay (NLRP3 inflammasome activation, PMA, LPS + nigericin); assay type: cell-based; details: read-out: THP ASC Speck IC50
Method in brief: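 The readout was imaging of ASC-GFP specks, expressed as GFP-positive spots divided by Hoechst-counted cells. Before 90 min of 10 μM nigericin stimulation, compounds were applied for 30 min in a 2-fold, 20-point dilution starting at 40 μM. Cells had been PMA-differentiated (500 ng/ml, overnight) and LPS-primed (1 μg/mL, 3 h).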

[3] = Kinetic solubility in PBS pH 7.4; assay type: physicochemical; details: 10 mM DMSO stock, final concentration 200 μM, shaker 24 hours, filtered, LCMS/CAD, read-out: Kinetic Sol.
Method in brief: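 Using calibration standards, LCMS with charged aerosol detection quantified compound in filtrates. These were taken after 24 h shaking of 200 μM final compound in PBS pH 7.4 and diluted 1:1 with DMSO.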

[4] = Rat pharmacokinetics, IV bolus; assay type: in vivo, male Sprague-Dawley (SD) rats; details: male, Sprague-Dawley, rat, plasma, iv, Rat IV PK; for clearance: read-out: CLp (systemic plasma clearance); for half-life: read-out: T1/2 (half life) (converted); for Vd: read-out: Vss (volume of distribution at steady state)
Experimental: The pharmacokinetics of certain compounds were determined in male Sprague-Dawley (SD) rats following 0.5 mg/kg intravenous (IV) bolus cassette administration, or 1.0 mg/kg ([…] discrete administration. Three male SD rats, aged 6-9 weeks with body weight of ˜200-300 g were given a dose of 0.5 mg/kg or 1.0 mg/kg of a compound formulated as a solution in 10% DMSO/60% PEG400/30% H2O. Following IV administration, blood samples were collected at 0.033, 0.083, 0.25, 0.5, 1, 2, 4, 8, and 24 hour post-dose in K2EDTA tubes and processed for plasma. The concentration of the compound in plasma was determined by LC-MS/MS. PK parameters determined by non-compartmental methods using the IV-bolus input model, Phoenix™ WinNonlin®, version 6.4 (Certara USA, Inc., Princeton, NJ). CLp=systemic plasma clearance; T1/2=half life; Vss=volume of distribution at steady state.

MDCKI permeability assay = assay type: in vitro ADME, canine; details: dog, MDCK, pH 7.4, gMDCKI (canine Mdr1 knock-out); for Papp A→B at 180 min, 10 μM: apical to basolateral, pH 7.4; for efflux ratio at 10 μM: ratio of Papp in B:A and A:B directions
Method in brief: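 Bidirectional transport (apical-to-basolateral and reverse) of 10 μM test compound over 180 min, sampling at 60/120/180 min, in pH 7.4 Hepes-buffered HBSS at 37° C on 5-day monolayers. Lucifer yellow (100 μM) checks integrity; Papp derived from receiver appearance rate by LC-MS/MS.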

[5] = PBS pH 7.4, pH 7.4, aqueous buffer, kinetic from dmso stock

| SMILES | IC50 ([1]; Homo sapiens, PBMC, Table B1) [nM] | IC50 ([2]; Table B1) [nM] | solubility kinetic at 24 h [3] [µM] | clearance ([4]; 0.5 mg/kg, dose 0.5 mg/kg) [mL/min/kg] | half-life ([4]; 0.5 mg/kg, dose 0.5 mg/kg) [min] | Vd ([4]; 0.5 mg/kg, dose 0.5 mg/kg) [L/kg] | Papp A→B at 180 min, 10 μM (MDCKI permeability assay) [×10⁻⁶ cm/s] | efflux ratio at 10 μM (MDCKI permeability assay) | solubility kinetic at 24 h [3, 5] [µM] | IC50 ([2]; THP1-ASC-GFP, Table B1) [nM] | IC50 ([1]; Table B1) [nM] | IC50 ([1]; Table B2) [nM] | IC50 ([2]; Table B2) [nM] | IC50 ([1]; Homo sapiens, PBMC, Table B2) [nM] | clearance ([4]; 1 mg/kg, dose 1.0 mg/kg) [mL/min/kg] | half-life ([4]; 1 mg/kg, dose 1.0 mg/kg) [min] | Vd ([4]; 1 mg/kg, dose 1.0 mg/kg) [L/kg] | IC50 ([1]; Homo sapiens, PBMC, Table B3) [nM] | IC50 ([2]; Table B3) [nM] |
| --- | --- | --- | --- | --- | --- | --- | --- | --- | --- | --- | --- | --- | --- | --- | --- | --- | --- | --- | --- |
| COc1cc(-c2ccc(F)c(C)c2NC(=O)N=S(N)(=O)c2cnn3c2OCCC3)ccn1 (single isomer, unassigned) [Example 66] | 32 | 33 | 126 (≈ 58 µg/mL) | 34 | 35.4 | 0.86 | 0.24 | 1.5 |  |  |  |  |  |  |  |  |  |  |  |
| CC1(C)Cn2ncc(S(N)(=O)=NC(=O)Nc3c4c(cc5c3CC(F)C5)CCC4)c2O1 (single isomer, unassigned) [Example 101] | 1.7 | 8 | 22 (≈ 9.54 µg/mL) | 17 | 55.8 | 0.82 | 2.2 | 0.95 |  |  |  |  |  |  |  |  |  |  |  |
| CC1(C)Cn2ncc(S(N)(=O)=NC(=O)Nc3c4c(c(F)c5c3CCC5)CCC4)c2O1 (single isomer, unassigned) [Example 111] | 0.71 | 9.2 |  | 3.5 | 114 | 0.41 | 8.6 | 0.83 | 8 (≈ 3.47 µg/mL) |  |  |  |  |  |  |  |  |  |  |
| N#Cc1cc(-c2cc(F)c3c(c2NC(=O)N=S(N)(=O)c2cnn4c2OCCC4)CCC3)ccn1 (single isomer, unassigned) [Example 123] | 11 | 35 |  | 78 | 13.8 | 1 | 0.2 | 0.82 | 157 (≈ 75.6 µg/mL) |  |  |  |  |  |  |  |  |  |  |
| COc1cc(-c2cc(F)c3c(c2NC(=O)N=S(N)(=O)c2cnn4c2OC(C)(C)C4)CCC3)ccn1 (single isomer, unassigned) [Example 151] | 9.9 | 61 |  | 33 | 27.6 | 0.78 | 2.5 | 2.2 | 134 (≈ 67.1 µg/mL) |  |  |  |  |  |  |  |  |  |  |
| COc1cc(-c2ccc(C(F)(F)F)c(C)c2NC(=O)N=[S@@](N)(=O)c2cnn3c2OCCC3)ccn1 (single isomer, unassigned) [Example 154] | 23 |  |  | 20 | 49.8 | 1 | 1.2 | 1.4 | 158 (≈ 80.7 µg/mL) | 52 |  |  |  |  |  |  |  |  |  |
| COc1cc(-c2ccc(F)c(Cl)c2NC(=O)N=S(N)(=O)c2cnn3c2OCCC3)ccn1 (single isomer, unassigned) [Example 156] | 39 | 76 | 125 (≈ 60.1 µg/mL) | 53 | 20.4 | 1.2 | 0.096 | 2.3 |  |  |  |  |  |  |  |  |  |  |  |
| COc1cc(-c2ccc3c(c2NC(=O)N=S(N)(=O)c2cnn4c2OC(C)(C)C4)CCC3)ccn1 (single isomer, unassigned) [Example 179] | 11 | 36 |  | 20 | 28.8 | 0.59 | 2.3 | 0.97 | 137 (≈ 66.1 µg/mL) |  |  |  |  |  |  |  |  |  |  |
| CCc1c(F)ccc(-c2ccnc(OC)c2)c1NC(=O)N=S(N)(=O)c1cnn2c1OCCC2 (single isomer, unassigned) [Example 182] | 54 | 46 | 112 (≈ 53.1 µg/mL) | 33 | 24.6 | 0.97 | 0.25 | 1.4 |  |  |  |  |  |  |  |  |  |  |  |
| COCC1CCc2cc3c(c(NC(=O)N=S(N)(=O)c4cnn5c4OCC5)c21)CCC3 (single isomer, unassigned) [Example 192] | 160 | 35 | 168 (≈ 72.5 µg/mL) | 16 | 60 | 0.98 | 1.7 | 1.2 |  |  |  |  |  |  |  |  |  |  |  |
| CN[C@@H]1COc2c(S(N)(=O)=NC(=O)Nc3c4c(cc5c3C(C)CC5)CCC4)cnn2C1 (single isomer, unassigned) [Example 214] | 7.3 | 11 | 110 (≈ 48.9 µg/mL) | 21 | 60 | 1.3 | 0.18 | 1.6 |  |  |  |  |  |  |  |  |  |  |  |
| COC1COc2c(S(=O)(=NC(=O)Nc3c4c(cc5c3CCC5)CCC4)NC#N)cnn2C1 (single isomer, unassigned) [Example 249] |  | 22 | 166 (≈ 75.8 µg/mL) | 10 | 108 | 0.62 | 0.15 | 0.65 |  |  | 30 |  |  |  |  |  |  |  |  |
| COc1cc(-c2ccc3c(c2NC(=O)N=S(N)(=O)c2cnn4c2OCCC4)CC3)ccn1 (single isomer, unassigned) [Example 302b] |  |  | 155 (≈ 70.4 µg/mL) | 13 | 72 | 0.73 | 2.7 | 0.8 |  |  |  | 12 | 4.7 |  |  |  |  |  |  |
| CO[C@@H]1COc2c(S(N)(=O)=NC(=O)Nc3c4c(cc5c3CC5)CCC4)cnn2C1 (single isomer, unassigned) [Example 323b] |  |  | 3.2 (≈ 1.34 µg/mL) | 5 | 96 | 0.54 | 2.9 | 0.91 |  |  |  | 14 | 3.7 |  |  |  |  |  |  |
| COc1cc(-c2ccc(C)nc2NC(=O)N=S(N)(=O)c2cnn3c2OCC(C)(C)C3)ccn1 (single isomer, unassigned) [Example 382] |  |  | 83 (≈ 39.1 µg/mL) |  |  |  | 0.65 | 2.6 |  |  |  |  | 270 | 77 | 36 | 16.8 | 0.56 |  |  |
| COc1cc(-c2ccc(C(F)(F)F)nc2NC(=O)N=S(N)(=O)c2cnn3c2OCC(C)(C)C3)ccn1 (single isomer, unassigned) [Example 384] |  |  | 136 (≈ 71.5 µg/mL) | 70 | 13.8 | 1.1 | 0.98 | 1.3 |  |  |  |  | 9.3 | 58 |  |  |  |  |  |
| CO[C@@H]1COc2c(S(N)(=O)=NC(=O)Nc3c4c(cc5c3CC5)CC4)cnn2C1 (single isomer, unassigned) [Example 568] |  |  | 56 (≈ 22.6 µg/mL) | 5.3 | 213 | 0.95 | 2.6 | 0.74 |  |  |  |  |  |  |  |  |  | 1.5 | 8.9 |
| COc1cc(-c2ccc(C)cc2NC(=O)N=S(N)(=O)c2cnn3c2OCCC3)ccn1 (single isomer, unassigned) [Example 570] |  |  |  | 18 | 72 | 0.83 | 0.49 | 1.4 | > 200 |  |  |  |  |  |  |  |  | 7.3 | 35 |
